This passage reports EC50 results from patent publication US20100063047A1 (KALYPSYS, INC., priority 2008, published 2010).

For experiment [1], the target named is T1, human H1 (Homo sapiens, UniProt P35367).
T1 construct: host or cells: CHO-K1, also expressing mitochondrion-targeted aequorin
Briefly: In vitro histamine H1 receptor cell-based aequorin bioluminescence antagonist assay. Conditions: CHO-K1 cells expressing human H1 and aequorin; histamine at EC80; read-out: H1 Antagonist EC50. A digest of the protocol:
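CHO-K1 cells stably expressing human H1 or H4 plus mitochondrial aequorin (H4 also with Gα16), loaded with 5 μM coelenterazine-h for 4 h at ~21 °C. Compounds preincubated 15 min at room temperature, then histamine at EC80 added.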

Experiment [2] deals with T2, human H4 (Homo sapiens, UniProt Q9H3N8).
T2 construct: host or cells: CHO-K1, also expressing mitochondrion-targeted aequorin and human Gα16
T2 sequence (Q9H3N8 whole entry): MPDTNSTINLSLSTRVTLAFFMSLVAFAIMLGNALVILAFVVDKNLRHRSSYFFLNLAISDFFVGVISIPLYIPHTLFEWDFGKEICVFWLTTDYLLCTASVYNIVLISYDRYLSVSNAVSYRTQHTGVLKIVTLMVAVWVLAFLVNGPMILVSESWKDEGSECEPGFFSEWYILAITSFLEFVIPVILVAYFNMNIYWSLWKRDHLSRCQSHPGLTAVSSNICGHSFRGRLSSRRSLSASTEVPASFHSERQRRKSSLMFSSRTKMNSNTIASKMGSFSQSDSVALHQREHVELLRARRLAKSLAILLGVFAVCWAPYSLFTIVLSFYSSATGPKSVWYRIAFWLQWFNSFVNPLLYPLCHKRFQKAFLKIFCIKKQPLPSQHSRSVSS
The experiment in a line: In vitro histamine H4 receptor cell-based aequorin bioluminescence antagonist assay. The settings on record: CHO-K1 cells expressing human H4, aequorin and Gα16; histamine at EC80. As to the method:
In vitro Histamine Receptor Cell-Based Assays
The cell-based assays utilize an aequorin dependent bioluminescence signal. Doubly-transfected, stable CHO—K1 cell lines expressing human H1 or H4, mitochondrion-targeted aequorin, and (H4 only) human G protein Gα16 are obtained from Perkin-Elmer. Cells are maintained in F12 (Ham's) growth medium, containing 10% (vol./vol.) fetal bovine serum, penicillin (100 IU/mL), streptomycin (0.1 mg/mL), zeocin (0.25 mg/mL) and geneticin (0.40 mg/mL). Cell media components are from Invitrogen, Inc. One day prior to assay, the growth medium is replaced with the same, excluding zeocin and geneticin.
For assay preparation, growth medium is aspirated, and cells are rinsed with calcium-free, magnesium-free phosphate-buffered saline, followed by two to three minute incubation in Versene (Invitrogen, Inc.) at 37° C. Assay medium (DMEM:F12 [50:50], phenol-red free, containing 1 mg/mL protease-free bovine serum albumin) is added to collect the released cells, which are then centrifuged. The cell pellet is re-suspended in assay medium, centrifuged once more, and re-suspended in assay medium to a final density of 5×10^6 cells/mL. Coelenterazine-h dye (500 μM in ethanol) is added to a final concentration of 5 μM, and mixed immediately. The conical tube containing the cells is then wrapped with foil to protect the light-sensitive dye. The cells are incubated for four hours further at room temperature (approximately 21° C.) with end-over-end rotation to keep them in suspension.
Just before assay, the dye-loaded cells are diluted to 0.75×10^6 cells/mL (H1 receptor) or 1.5×10^6 cells/mL (H4 receptor) with additional assay medium. Cells are dispensed to 1536 well micro-titer plates at 3 μL/well. To assay receptor antagonism, 60 nl of 100× concentration test compounds in 100% dimethyl sulfoxide (DMSO) are dispensed to the wells, one compound per well, by passive pin transfer, and the plates are incubated for 15 minutes at room temperature. […] The pipette dispenses 3 μL/well of agonist (histamine, at twice the final concentration, where final concentration is a previously determined EC80) in assay medium, with concurrent bioluminescence detection. Agonist activity of test compounds is excluded by separate assays that measure response to test compounds immediately, without added histamine agonist.
CCD image capture on the Lumilux includes a 5 second baseline read prior to agonist addition, and generally a 40 second read per plate after agonist addition. A decrease in bioluminescence signal (measured either as area-under-the-curve, or maximum signal amplitude minus minimum signal amplitude) correlates with receptor antagonism in a dose dependent manner. The negative control is DMSO lacking any test compound. For antagonist assays, the positive controls are diphenhydramine (2-Diphenylmethoxy-N,N-dimethylethylamine, 10 μM final concentration, H1 receptor) or JNJ7777120 (1-[(5-Chloro-1H-indol-2-yl)carbonyl]-4-methyl-piperazine, 10 μM final concentration, H4 receptor). Efficacy is measured as a percentage of positive control activity.

T1 sequence (P35367 whole entry): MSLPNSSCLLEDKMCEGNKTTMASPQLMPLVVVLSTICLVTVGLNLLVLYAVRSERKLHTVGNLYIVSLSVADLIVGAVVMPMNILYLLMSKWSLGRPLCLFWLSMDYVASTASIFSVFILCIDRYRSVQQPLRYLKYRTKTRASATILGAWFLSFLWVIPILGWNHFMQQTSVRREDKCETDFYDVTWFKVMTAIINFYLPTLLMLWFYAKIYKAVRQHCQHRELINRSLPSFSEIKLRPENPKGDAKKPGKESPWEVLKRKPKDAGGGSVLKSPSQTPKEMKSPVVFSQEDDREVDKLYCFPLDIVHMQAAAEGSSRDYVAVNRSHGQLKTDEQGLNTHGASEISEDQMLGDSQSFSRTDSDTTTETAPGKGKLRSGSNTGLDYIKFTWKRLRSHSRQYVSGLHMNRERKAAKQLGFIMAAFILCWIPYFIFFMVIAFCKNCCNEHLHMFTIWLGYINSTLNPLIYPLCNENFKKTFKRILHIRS

For `CC(=O)N[C@H]1CCN(c2ncnc3scc(C)c23)C1` [Example 212, N-[(3S)-1-{5-methylthieno[2,3-d]pyrimidin-4-yl}pyrrolidin-3-yl]acetamide], the EC50 in experiment [1] and in experiment [2] was greater than 10 µM each time.

On to `Cc1csc2ncnc(N3CCC(O)(c4ccc(Cl)cc4)CC3)c12` [Example 280, 4-(4-chlorophenyl)-1-{5-methylthieno[2,3-d]pyrimidin-4-yl}piperidin-4-ol], for which the EC50 in experiment [1] and in experiment [2] was greater than 10 µM throughout.

Consider `CCN(CC)CCNc1ncnc2scc(C)c12` [Example 94, diethyl[2-({5-methylthieno[2,3-d]pyrimidin-4-yl}amino)ethyl]amine], for which the 50% effective concentration (EC50) in experiment [1] and in experiment [2] was greater than 10 µM in each case.

On to `Cc1csc2ncnc(N3CCN(c4ccccn4)CC3)c12` [Example 234, 1-{5-methylthieno[2,3-d]pyrimidin-4-yl}-4-(pyridin-2-yl)piperazine], for which the EC50 in experiment [1] and in experiment [2] was greater than 10 µM each time.

In the case of `Cc1csc2ncnc(N(C)C[C@H](O)c3ccc(O)c(O)c3)c12` [Example 248, 4-[(1R)-1-hydroxy-2-[methyl({5-methylthieno[2,3-d]pyrimidin-4-yl})amino]ethyl]benzene-1,2-diol], the EC50 in experiment [1] and in experiment [2] was greater than 10 µM each time.

Turning to `Cc1csc2ncnc(N(C)Cc3cccc4ccccc34)c12` [Example 274, N,5-dimethyl-N-(naphthalen-1-ylmethyl)thieno[2,3-d]pyrimidin-4-amine], the EC50 in experiment [1] and in experiment [2] was greater than 10 µM in each case.

Consider `Cc1csc2ncnc(NCC#N)c12` [Example 52, 2-({5-methylthieno[2,3-d]pyrimidin-4-yl}amino)acetonitrile], for which the concentration giving a half-maximal response (EC50) in experiment [1] and in experiment [2] was greater than 10 µM throughout.

Turning to `CCOC(=O)CC1C(=O)NCCN1c1ncnc2scc(C)c12` (centres unmarked) [Example 249, ethyl 2-(1-{5-methylthieno[2,3-d]pyrimidin-4-yl}-3-oxopiperazin-2-yl)acetate], the concentration for a half-maximal effect (EC50) in experiment [1] and in experiment [2] was greater than 10 µM in each case.

Consider `Cc1csc2ncnc(CCNc3ccc(Cl)cc3)c12` [Example 32, 4-chloro-N-(2-(5-methylthieno[2,3-d]pyrimidin-4-yl)ethyl)aniline], for which the EC50 in experiment [1] and in experiment [2] was greater than 10 µM in each case.

Consider `Cc1csc2ncnc(N3CCN(c4ccc(C(F)(F)F)cn4)CC3)c12` [Example 2, 5-methyl-4-(4-(5-(trifluoromethyl)pyridin-2-yl)piperazin-1-yl)thieno[2,3-d]pyrimidine], for which the EC50 in experiment [1] and in experiment [2] was greater than 10 µM throughout.

Turning to `Cc1csc2ncnc(NCc3ccncc3)c12` [Example 86, 5-methyl-N-(pyridin-4-ylmethyl)thieno[2,3-d]pyrimidin-4-amine], the EC50 in experiment [1] and in experiment [2] was greater than 10 µM in each case.

As for `Cc1csc2ncnc(N3CCC[C@@H]3CO)c12` [Example 194, [(2R)-1-{5-methylthieno[2,3-d]pyrimidin-4-yl}pyrrolidin-2-yl]methanol], the EC50 in experiment [1] and in experiment [2] was greater than 10 µM throughout.

For the compound `COc1ccc(N2CCN(c3ncnc4scc(C)c34)CC2)cc1OC` [Example 4, 4-(4-(3,4-dimethoxyphenyl)piperazin-1-yl)-5-methylthieno[2,3-d]pyrimidine], the EC50 in experiment [1] and in experiment [2] was greater than 10 µM in each case.

Regarding `Cc1csc2ncnc(N(CCC#N)Cc3ccccc3)c12` [Example 153, 3-[benzyl({5-methylthieno[2,3-d]pyrimidin-4-yl})amino]propanenitrile], the concentration giving a half-maximal response (EC50) in experiment [1] and in experiment [2] was greater than 10 µM each time.

`CCCN(CCC)c1ncnc2scc(C)c12` [Example 196, 5-methyl-N,N-dipropylthieno[2,3-d]pyrimidin-4-amine]: the EC50 in experiment [1] and in experiment [2] was greater than 10 µM each time.

As to `Cc1csc2ncnc(N(Cc3cccnc3)Cc3cccnc3)c12` [Example 268, 5-methyl-N,N-bis(pyridin-3-ylmethyl)thieno[2,3-d]pyrimidin-4-amine], the EC50 in experiment [1] and in experiment [2] was greater than 10 µM throughout.

On to `CCC(C)Nc1ncnc2scc(C)c12` (centres unmarked) [Example 60, N-(butan-2-yl)-5-methylthieno[2,3-d]pyrimidin-4-amine], for which the EC50 in experiment [1] and in experiment [2] was greater than 10 µM throughout.

Take `COc1cccc(N2CCN(c3ncnc4scc(C)c34)CC2)c1` [Example 263, 1-(3-methoxyphenyl)-4-{5-methylthieno[2,3-d]pyrimidin-4-yl}piperazine]: the EC50 in experiment [1] and in experiment [2] was greater than 10 µM in each case.

Consider `Cc1csc2ncnc(NC3CC3)c12` [Example 53, N-cyclopropyl-5-methylthieno[2,3-d]pyrimidin-4-amine], for which the EC50 in experiment [1] and in experiment [2] was greater than 10 µM each time.

`Cc1csc2ncnc(N3CCCC3CO)c12` (centres unmarked) [Example 193, (1-{5-methylthieno[2,3-d]pyrimidin-4-yl}pyrrolidin-2-yl)methanol]: the EC50 in experiment [1] and in experiment [2] was greater than 10 µM in each case.

Consider `Cc1csc2ncnc(N(C)CC(O)c3ccc(O)cc3)c12` (centres unmarked) [Example 238, 4-{1-hydroxy-2-[methyl({5-methylthieno[2,3-d]pyrimidin-4-yl})amino]ethyl}phenol], for which the EC50 in experiment [1] and in experiment [2] was greater than 10 µM in each case.

As to `Cc1csc2ncnc(N(Cc3ccccc3)C(C)C)c12` [Example 225, N-benzyl-5-methyl-N-(propan-2-yl)thieno[2,3-d]pyrimidin-4-amine], the EC50 in experiment [1] and in experiment [2] was greater than 10 µM each time.

`Cc1csc2ncnc(NCCCCO)c12` [Example 74, 4-({5-methylthieno[2,3-d]pyrimidin-4-yl}amino)butan-1-ol]: the EC50 in experiment [1] and in experiment [2] was greater than 10 µM in each case.

In the case of `CCN(CC)CCCC(C)Nc1ncnc2scc(C)c12` (centres unmarked) [Example 151, diethyl[4-({5-methylthieno[2,3-d]pyrimidin-4-yl}amino)pentyl]amine], the EC50 in experiment [1] and in experiment [2] was greater than 10 µM throughout.

For `Cc1csc2ncnc(NCc3cccnc3)c12` [Example 84, 5-methyl-N-(pyridin-3-ylmethyl)thieno[2,3-d]pyrimidin-4-amine], the EC50 in experiment [1] and in experiment [2] was greater than 10 µM throughout.

For `CCN(CC)CCN(Cc1ccccc1)c1ncnc2scc(C)c12` [Example 272, N-benzyl-N-[2-(diethylamino)ethyl]-5-methylthieno[2,3-d]pyrimidin-4-amine], the EC50 in experiment [1] and in experiment [2] was greater than 10 µM in each case.

As to `Cc1csc2ncnc(NCCN3CCCCC3)c12` [Example 107, 5-methyl-N-[2-(piperidin-1-yl)ethyl]thieno[2,3-d]pyrimidin-4-amine], the EC50 in experiment [1] and in experiment [2] was greater than 10 µM in each case.

For `Cc1csc2ncnc(NCCCN3CCCC3=O)c12` [Example 132, 1-[3-({5-methylthieno[2,3-d]pyrimidin-4-yl}amino)propyl]pyrrolidin-2-one], the half-maximal effective concentration (EC50) in experiment [1] and in experiment [2] was greater than 10 µM in each case.

For `Cc1csc2ncnc(N3CCN(c4cccc(C(F)(F)F)c4)CC3)c12` [Example 288, 1-{5-methylthieno[2,3-d]pyrimidin-4-yl}-4-[3-(trifluoromethyl)phenyl]piperazine], the EC50 in experiment [1] and in experiment [2] was greater than 10 µM each time.

In the case of `Cc1csc2ncnc(NC3CCCc4ccccc43)c12` (centres unmarked) [Example 138, 5-methyl-N-(1,2,3,4-tetrahydronaphthalen-1-yl)thieno[2,3-d]pyrimidin-4-amine], the 50% effective concentration (EC50) in experiment [1] and in experiment [2] was greater than 10 µM in each case.

For `Cc1csc2ncnc(NN3CCOCC3)c12` [Example 81, N-{5-methylthieno[2,3-d]pyrimidin-4-yl}morpholin-4-amine], the EC50 in experiment [1] and in experiment [2] was greater than 10 µM in each case.

By EC50 is commonly meant the concentration needed to bring the measured effect to its halfway point.
